Measurements published in patent publication US20010039246A1, “Composition and method for early bloom thinning of fruit trees and controlling cracking of fruits” (priority 2000, published 2001).
Like-named read-outs stand apart in the source and are kept apart here.

Columns and labels:
[1] = test system: ‘Gala’ apple trees; assay: Thinning and phytotoxicity of lipid, copper and their mixture (Example 5); type: in vivo; details: for Russet / Leaf damage / Thinning: ‘Gala’ apples, aqueous cupric sulfate, sprayed at 5% FB; for Russet: fruit russet at harvest
Method: Emulsion was prepared with glyceride type of lipids as in Example 2 and diluted to 2% active ingredients. Cupric sulfate was added to the diluted emulsion to give mixtures containing 0, 50, 100, and 150 g metallic copper per 100 L, respectively. Aqueous solutions containing 0, 50, 100, and 150 g metallic copper per 100 L were also prepared seperately. Emulsion and copper mixtures or cupric sulfate solutions were sprayed on 12 year-old ‘Gala’ apple trees at 5% FB. Each treatment consisted of 4 trees (replications) in a row (oriented from south to north) and 2 shoots (one from the east and another from the west side of the canopy) were selected from each of the 4 trees for evaluation. Fruit set was measured 2 months after FB and leaf damage were evaluated 1, 2, and 3 weeks after application. Fruit russet was assessed at harvest and return of bloom was evaluated the following season.

[2] = test system: peach trees; details: cited from earlier work
[3] = test system: ‘Delicious’ apple; assay: Lipids and surfactants for bloom thinning, fruit set and leaf bud damage (Example 4); type: in vivo; details: applied at 5% full bloom
[4] = test system: ‘Bing’ cherry trees; assay: as above; type: in vivo; details: sprayed at 5% full bloom
Source text: (§1) […] Each treatment (plot) consisted of 4 trees, which received standard commercial management both before and after oil application.

[5] = test system: ‘Feng Huang’ peach; assay: as above; type: in vivo; details: applied at 5% full bloom
Source text: as §1

[6] = test system: ‘Feng Huang’ peaches, ‘Delicious’ apples, and ‘Bing’ cherries; assay: Lipids and surfactants for bloom thinning, all cultivars of Example 4; type: in vivo; details: for damage to leaf buds: surfactant alone at 0.6% or 1%; for thinning effect: surfactant alone at the application rate (0.2%, 0.6%, 1%), sprayed at 5% full bloom
Source text: Fruit trees of ‘Feng Huang’ peaches, ‘Delicious’ apples, and ‘Bing’ cherries all were sprayed at 5% full bloom. Each treatment (plot) consisted of 4 trees, which received standard commercial management both before and after oil application.

Row | Molecule | Fruit set ([3]; surfactant solution 0.2%) | leaf bud damage ([3]; surfactant solution 0.2%) | Fruit set ([3]; surfactant solution 0.6%) | leaf bud damage ([3]; surfactant solution 0.6%) | Fruit set ([3]; surfactant solution 1.0%) | leaf bud damage ([3]; surfactant solution 1.0%) | Fruit set ([4]; surfactant solution 0.2%) | leaf bud damage ([4]; surfactant solution 0.2%) | Fruit set ([4]; surfactant solution 0.6%) | leaf bud damage ([4]; surfactant solution 0.6%) | Fruit set ([4]; surfactant solution 1.0%) | leaf bud damage ([4]; surfactant solution 1.0%) | Fruit set ([5]; surfactant solution 0.2%) | leaf bud damage ([5]; surfactant solution 0.2%) | Fruit set ([5]; surfactant solution 0.6%) | leaf bud damage ([5]; surfactant solution 0.6%) | Fruit set ([5]; surfactant solution 1.0%) | leaf bud damage ([5]; surfactant solution 1.0%) | damage to leaf buds [6] | thinning effect [6] | also measured
1 | O=S(=O)([O-])[O-].[Cu+2] [Cupric sulfate] |  |  |  |  |  |  |  |  |  |  |  |  |  |  |  |  |  |  |  |  | thinning and phytotoxicity ([1]; ‘Gala’ apple, 50, 100, 150 g metallic copper per 100 L): both thinning and phytotoxicity in a concentration dependent manner; Russet ([1]; 50 g metallic copper/100 L): 0%; Russet ([1]; 100 g metallic copper/100 L): 35%; Russet ([1]; 150 g metallic copper/100 L): 64%; Leaf damage ([1]; 50 g metallic copper/100 L): 0%; Thinning ([1]; 50 g metallic copper/100 L): 87%; Leaf damage ([1]; 100 g metallic copper/100 L): 9%; Thinning ([1]; 100 g metallic copper/100 L): 64%; Leaf damage ([1]; 150 g metallic copper/100 L): 24%; Thinning ([1]; 150 g metallic copper/100 L): 43%
2 | N,N-bis 2-[omega (hydroxypolyoxyethylene/polyoxypropylene)ethyl alkylamine] [Armothin] |  |  |  |  |  |  |  |  |  |  |  |  |  |  |  |  |  |  |  |  | thinning effect ([2]; 1%): not effective thinners
3 | TRITON X-100 | 62% | 0% | 64% | 8% | 69% | 15% | 94% | 0% | 83% | 10% | 90% | 18% | 41% | 0% | 42% | 6% | 38% | 20% | caused some damage to leaf buds | not effective in thinning | 
4 | TWEEN 60 | 58% | 0% | 65% | 7% | 61% | 13% | 96% | 0% | 92% | 8% | 87% | 17% | 46% | 0% | 42% | 5% | 38% | 18% | caused some damage to leaf buds | not effective in thinning | 
5 | alkaryl polyoxyethylene alcohols |  |  |  |  |  |  |  |  |  |  |  |  |  |  |  |  |  |  |  |  | thinning effect ([2]; 2%): not effective thinners
